Results taken from ChEMBL document CHEMBL1154709, “Perspectives of P-glycoprotein modulating agents in oncology and neurodegenerative diseases: pharmaceutical, biological, and diagnostic potentials” (2010).

How the values were obtained:
Homo sapiens [1] = test: Increase in P-gp-substrate 99mTc]sestaMIBI accumulation in liver of human with metastatic cancer at 150 mg, iv by imaging analysis; format: functional
Homo sapiens [2] = test: Increase in P-gp-substrate 99mTc]sestaMIBI accumulation in tumor and heart of human with metastatic cancer at 150 mg, iv by imaging analysis; format: functional

SMILES: COc1cc2c(cc1OC)CN(CCc1ccc(NC(=O)c3cc(OC)c(OC)cc3NC(=O)c3cnc4ccccc4c3)cc1)CC2 [TARIQUIDAR]
- Activity (Homo sapiens [1]): 128%
- Activity (Homo sapiens [2]): 36%
